Assay [1] concerns the target T1, rhARLBD (ligand binding domain of the rhesus monkey AR) (Macaca mulatta, UniProt Q6QT55).
T1 construct: includes amino acids 601 to 895 of the rhesus monkey AR; made in house; host or cells: yeast (pESP-1 vector, Stratagene)
T1 sequence (Q6QT55 601-895): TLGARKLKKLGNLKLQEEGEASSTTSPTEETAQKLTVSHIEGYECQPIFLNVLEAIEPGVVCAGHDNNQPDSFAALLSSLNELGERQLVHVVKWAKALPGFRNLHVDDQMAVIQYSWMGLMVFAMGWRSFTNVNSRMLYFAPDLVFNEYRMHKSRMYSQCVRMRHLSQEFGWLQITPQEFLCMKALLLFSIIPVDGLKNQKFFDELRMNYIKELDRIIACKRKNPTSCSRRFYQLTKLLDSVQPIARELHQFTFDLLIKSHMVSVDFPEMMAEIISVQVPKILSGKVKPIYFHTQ
As to the kind of experiment: Hydroxyapatite (HAP)-based 3H-R1881 displacement binding assay using rhARLBD expressed in yeast.
From the text: The screening assays were set up to use the ARLBD from Macaca mulatta (rhesus monkey; herein after rhARLBD) expressed in yeast. […] A medium to high throughput AR binding assay for screening analyte libraries and characterizing various analytes therein was also developed.
Cloning the full length rhesus monkey AR from rhesus monkey prostrate mRNA and subsequent subcloning of the rhARLBD was done as described in WO02090529 to Towler and Chen. Briefly, the rhARLBD was PCR amplified from the full rhesus monkey AR and inserted in frame with GST at a SmaI site of the pESP-1 clone. This placed the rhARLBD downstream of the GST-flag tag.
Cell lysates comprising the rhARLBD were prepared as follows. GST-Flag-rhARLBD (Mr=60 kDa) fusion protein was expressed in yeast using the pESP-1 vector (Stratagene, La Jolla, Calif.) according to the manufacturer's protocol. After a sufficient time to express the GST-Flag-rhARLBD the yeast were centrifuged and the yeast pellet resuspended in TGEM/DTT/PI buffer (10 mM Tris-HCl, pH 7.4, 1 mM EDTA, 10% glycerol, 10 mM molybdate, 2 mM dithiothreitol (DTT), 50 μL yeast protease inhibitor cocktail (PI, Sigma Chemicals, St. Louis, Mo.) per gram of yeast and 1/10×^th volume of PI complete (PI: Boehringer-Mannheim, Roche Applied Science, Indianapolis, Ind.) per gram of yeast. The yeast cells were lysed by vortexing in the presence of glass beads in cold TGEM/DTT/PI buffer. The cell debris was centrifuged at 10,000×g for 20 minutes at 4° C. The clear supernatant fraction containing the rhARLBD was the lysate used for the assays. Usually, about 25 to 50 μL of lysate as determined by titration was used per assay. In some cases, the rhARLBD fusion protein was purified from the lysate using a batch purification method using anti-Flag M2 affinity gel (Sigma) in TEGM/DTT buffer. The rhARLBD fusion protein was eluted using TEGM/DTT buffer containing 100 μg/mL Flag peptide.
Hydroxyapatite (HAP)-based binding assays were performed as follows: For the hydroxyapatite assays, the amount of lysate used was based on titration using ^3H-ligand at concentration about the Kd value of the ligand to the corresponding receptor. In general, the assay was carried at in 150 μL of TEGM buffer. […] The samples were vortexed and incubated on ice for about 10 minutes. […] The washing process transfers the HAP pellets containing ligand-bound-expressed receptor to [sequence]-96 GF/B (Packard Instruments Co.) which has been prewetted in 0.5% polyethylimine. The HAP pellets on the filter plates were incubated with 50 μL of MICROSCINT (Packard Instruments Co.) for 2 hours before counted on the TOPCOUNT (Packard Instruments Co.). […] The binding reactions were incubated for about 18 hours at 4° C. and process as above).

For assay [2], the system named is LnCap cells. The assay is classed as cell-based, human.
Assay [3] has as its system LnCap cells. The assay is classed as cell-based, human. The source holds these as a separate data set.
Assay [4] relates to LnCap cells. The note with it: LnCap AR with residue 877 threonine to alanine mutation; cited from earlier work.
Assay [5] has as its target T2, LnCap AR (residue 877 threonine to alanine) (Homo sapiens, UniProt P10275, T878A).
T2 sequence (P10275 1-920 T878A): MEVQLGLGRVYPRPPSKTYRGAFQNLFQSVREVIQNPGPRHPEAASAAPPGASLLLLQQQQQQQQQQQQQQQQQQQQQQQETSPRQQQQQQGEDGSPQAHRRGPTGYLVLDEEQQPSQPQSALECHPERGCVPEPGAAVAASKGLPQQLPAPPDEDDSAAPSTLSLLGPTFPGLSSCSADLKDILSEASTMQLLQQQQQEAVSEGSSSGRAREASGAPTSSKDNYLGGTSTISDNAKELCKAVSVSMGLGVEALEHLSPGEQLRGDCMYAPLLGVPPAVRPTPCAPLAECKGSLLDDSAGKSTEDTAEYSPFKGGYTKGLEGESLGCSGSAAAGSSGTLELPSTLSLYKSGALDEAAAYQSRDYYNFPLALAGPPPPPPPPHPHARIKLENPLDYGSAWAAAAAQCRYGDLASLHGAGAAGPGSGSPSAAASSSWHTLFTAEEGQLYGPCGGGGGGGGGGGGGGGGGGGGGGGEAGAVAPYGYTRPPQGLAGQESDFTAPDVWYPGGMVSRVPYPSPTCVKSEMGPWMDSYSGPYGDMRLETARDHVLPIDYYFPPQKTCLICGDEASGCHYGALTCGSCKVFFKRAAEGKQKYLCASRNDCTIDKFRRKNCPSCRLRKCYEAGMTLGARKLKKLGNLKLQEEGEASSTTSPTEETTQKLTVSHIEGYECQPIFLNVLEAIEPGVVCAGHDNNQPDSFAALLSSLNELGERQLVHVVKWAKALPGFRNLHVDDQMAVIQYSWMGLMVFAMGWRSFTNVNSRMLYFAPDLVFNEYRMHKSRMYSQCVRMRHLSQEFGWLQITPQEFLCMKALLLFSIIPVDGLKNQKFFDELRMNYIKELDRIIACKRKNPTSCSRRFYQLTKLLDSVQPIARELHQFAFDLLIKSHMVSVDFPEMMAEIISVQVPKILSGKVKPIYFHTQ
The note with it: LnCap AR expression vector; cited from earlier work.

“Also recorded” adds a separate entry of the source. Where two headings read alike, the source gives them in different places.

Results on 9 compounds are retold here after US20070141636A1 (priority 2003, published 2007).

On to `C[C@]12CCC(=O)C=C1CC[C@@H]1[C@@H]2CC[C@]2(C)C(=O)CC[C@@H]12` [4-androstene-3,17β-dione], for which the “binding affinity to rhARLBD compared to full-length human AR” value in assay [1] (comparison of IC50s, rhARLBD (yeast lysate) vs full-length human AR (mdaAR), FIGS. 2A-2D, 3A-3D) is on record as “reduced binding affinity”. The “agonist activity, PSA production in LnCap cells (agonist mode)” value (shortened to “agonist activity, PSA production”) in the assay with LnCap cells [2] is “had agonist activity”. In the assay on LnCap cells [3], the “antagonist activity on PSA production in LnCap cells (antagonist mode)” value (from here on “antagonist activity on PSA production”) is “antagonist activity; also recorded: antagonized the agonist activity of DHT and R1881”.
`C[C@]12CC[C@H]3[C@@H](CCC4=C[C@@H](O)CC[C@@]43C)[C@@H]1CC[C@@H]2O` [4-androstene-3β,17β-diol]: in the assay on LnCap cells [2], the “agonist activity, PSA production” value is recorded as “had agonist activity”. In addition, in the assay with LnCap cells [3], the “antagonist activity on PSA production” value is “antagonist activity; also recorded: antagonized the agonist activity of DHT and R1881”.
`CC(O)(CS(=O)(=O)c1ccc(F)cc1)C(=O)Nc1ccc(C#N)c(C(F)(F)F)c1` (stereo not shown) [CASODEX]: in the assay on LnCap cells [2], the “agonist activity, PSA production” value is on record as “full antagonist”. Further, the “stimulation of LnCap cell growth through the AR” value (“stimulation” below) in the assay with LnCap cells [4] was “retains its antagonism”. The “antagonist activity on PSA production” value in the assay with LnCap cells [3] is on record as “antagonist activity”.
For `CC(=O)O[C@]1(C(C)=O)CC[C@H]2[C@@H]3C=C(Cl)C4=CC(=O)[C@@H]5C[C@@H]5[C@]4(C)[C@H]3CC[C@@]21C` [CPA, cyproterone acetate], in the assay with LnCap cells [2], the “agonist activity, PSA production” value is reported as “had agonist activity”. The “stimulation” value in the assay on LnCap cells [4] is reported as “able to stimulate cell growth”. Also, the “antagonist activity on PSA production” value in the assay with LnCap cells [3] was “antagonist activity; also recorded: antagonized the agonist activity of DHT and R1881”.
In the case of `C[C@]12CC[C@H](O)CC1=CC[C@@H]1[C@@H]2CC[C@]2(C)C(=O)CC[C@@H]12` [DHEA, dehydroepiandrosterone], in the assay with LnCap cells [2], the “agonist activity, PSA production” value was “had agonist activity”. Moreover, the “antagonist activity on PSA production” value in the assay on LnCap cells [3] was “antagonist activity; also recorded: antagonized the agonist activity of DHT and R1881”.
For the compound `C[C@]12CCC(=O)C[C@@H]1CC[C@@H]1[C@@H]2CC[C@]2(C)[C@@H](O)CC[C@@H]12` [DHT, 5-α-dihydrotestosterone], the “agonist activity, PSA production” value in the assay with LnCap cells [2] is on record as “full agonist activity; also recorded: had agonist activity”. Moreover, the “antagonist activity on PSA production” value in the assay on LnCap cells [3] was “full agonist activity”.
On to `C[C@]1(O)CC[C@H]2[C@@H]3CCC4=CC(=O)CCC4=C3C=C[C@@]21C` [R1881, 17 β-hydroxy-17-methyl-estra-4,9,11-trien-3-one], for which, in assay [1], the concentration for half-maximal inhibition (IC50) is ~1 nM and the “binding affinity to rhARLBD compared to full-length human AR” value is on record as “same binding affinity; also recorded: no significant shift”. The “agonist activity, PSA production” value with LnCap cells [2] is “slightly less potent than DHT; also recorded: had agonist activity”. For the same compound, the “antagonist activity on PSA production” value with LnCap cells [3] is “does not antagonize”.
On to `CC(C)(O)C(=O)Nc1ccc([N+](=O)[O-])c(C(F)(F)F)c1` [hydroxyflutamide], for which the “stimulation” value with LnCap cells [4] is reported as “able to stimulate cell growth”. Moreover, in assay [5], the “effect on the androgen promoter in receptor/reporter cotransfection” value was “agonist effect”.
With `CC(=O)[C@H]1CC[C@H]2[C@@H]3CCC4=CC(=O)CC[C@]4(C)[C@H]3CC[C@]12C` [progesterone], the “stimulation” value with LnCap cells [4] is “able to stimulate cell growth”.

The IC50 is the concentration at which inhibition is half-maximal.
